Assay results reported in patent US6342526B1, “Method for enhancing or achieving training-induced bradycardia with Carnitine” (Lonza Ltd., priority 2000, dated 2002).

Columns and labels:
horses [1] = experiment: Heart rate during treadmill exercise training with oral L-carnitine supplementation; type: in vivo, horse
[2] = LC concentration in M. glutaeus med. muscle biopsies; type: in vivo, horse; settings: horses
Source text: LC was obtained as commercially available free L-carnitine (Carniking® from Lonza Ltd.). After a first standardised exercise test (SET) during the whole experiment period (5 weeks training, 15 weeks detraining) a group of 4 Trotters received 10 g of LC/d offered with concentrate in two feed portions daily, as essentially described in example 1, while a group of 4 Trotters served as non-supplemented controls. All horses were two years old and were descendants from 1 stallion. The treadmill training program consisted of 8 aerobic, static exercise sessions (15 min warmup, 60 min exercise at an intensity level which maintained a blood lactate concentration of 2.0 mmol/l (VLA 2.0)) and 8 anaerobic exercise sessions (15 min, warm up, followed by 15 steps of graded exercise intensities of 1 min duration each, starting at VLA 4.0). During the dynamic exercises running speed was incremented every minute by 0.3 m/s and ranged from about of 5 m/s to 14 m/s. […]
Muscle biopsies from M. glutaeus med. and venous blood samples were collected at the beginning (1st SET) and the end of training (2nd SET) and at the beginning and the end of the 1st (beginning of training) and 8th (end of training) static and dynamic exercise and after 5 and 10 weeks of detraining. […] Heart rates were continuously monitored during exercises with a polar horse tester.

horses [3] = experiment: Plasma glucose and blood lactate during standardised exercise test (SET); type: in vivo, horse; settings: 10 g LC/d
rats = experiment: Training-induced bradycardia in rats; type: in vivo, rat
swine = experiment: Training-induced bradycardia in swine; type: in vivo

## C[N+](C)(C)C[C@H](O)CC(=O)[O-] [L-carnitine]
Horses [1]; N=4, 10 g LC/d, end of 15 steps of +0.3 m/s, after 5 weeks training, mean
  Heart rate at end of incremented, high intensity (anaerobic) exercise, post-training: 196 beats/min
Horses [1]; N=4, 10 g LC/d, end of 15 steps of +0.3 m/s, pre-training, mean
  Heart rate at end of incremented, high intensity (anaerobic) exercise, pre-training: 209 beats/min
Horses [1]; N=4, 10 g LC/d, start at VLA 4.0, after 5 weeks training, mean
  Heart rate at start of incremented, high intensity (anaerobic) exercise, post-training: 143 beats/min
Horses [1]; N=4, 10 g LC/d, start at VLA 4.0, pre-training, mean
  Heart rate at start of incremented, high intensity (anaerobic) exercise, pre-training: 150 beats/min
Horses [1]; SET, 10 g LC/d for 5 weeks training, FIG. 2
  Decline of post-training heart rate at equivalent work loads versus start of training: 7 beats/minute
Horses [1]; SET, treadmill speeds 5 to 9 m/s, 10 g LC/d, 5 weeks
  Change in heart rate at increasing exercise work loads, end versus start of training: significant (p<0.001) reduction in heart rate
Horses [1]; Trotters N=4, 10 g LC/d oral, 60 min treadmill at VLA 2.0, after 5 weeks training, mean ± SD
  Heart rate during moderate intensity (aerobic) exercise, post-training: 122 ± 6 beats/min
Horses [1]; Trotters N=4, 10 g LC/d oral, 60 min treadmill at VLA 2.0, pre-training, mean ± SD
  Heart rate during moderate intensity (aerobic) exercise, pre-training: 130 ± 7 beats/min
[2]; 10 g LC/d oral, five weeks of supplementation
  Elevation of LC concentration in M. glutaeus med.: about 50%
[2]; 10 g LC/d, whole detraining period
  LC concentration in the muscle during detraining period: remained at this high level
Horses [3]; FIG. 1
  Exercise-induced increase of blood lactate: lower
Horses [3]; end of 5 weeks training
  Concentration of glucose in plasma during exercise, second SET versus first SET: lower concentrations of glucose in plasma during exercise
rats
  Enhancement of training-induced bradycardia: enhancement of training-induced bradycardia was equally achieved
swine
  Enhancement of training-induced bradycardia: enhancement of training-induced bradycardia was equally achieved
